Experimental data published in US6211155A, “Peptide conjugates derived from thymic hormones, their use as a medicament and compositions containing them” (Institut European de Biologie Cellulaire, priority 1995, dated 2001).
Where no end group is shown, it is not given here.

Tests used:
[1] = test system: Thy 1.2+ thymocytes of the epidermis; test: Thy 1.2+ epidermal cell density after topical application to mouse ear (immunofluorescence); assay type: in vivo, C57-BL/6 mice; details: for Number of Thy 1.2+ cells per mm^2 of epidermis, batch 1 / Number of Thy 1.2+ cells per mm^2 of epidermis, batch 2 / Number of Thy 1.2+ cells per mm^2 of epidermis, batch 3 / Number of Thy 1.2+ cells per mm^2 of epidermis, batch 4 / Number of Thy 1.2+ cells per mm^2 of epidermis, Mean: C 57 BL/6 mice; for Number of Thy 1.2+ cells per mm^2 of epidermis, Mean: 4 batches; for Thy 1.2+ cells % T: relative to PG controls
Experimental: (§1) I--Experimental Samples--Code: ETF
(§2) In solution in propylene glycol at a concentration of 10^-5 M/ml
(§3) 5 to 7-week-old male C 57-BL/6 mice, which are divided into groups of 4 per cage, and which have free access to water and food and which are subjected to a photoperiod of 12 h of light per 24 hours, are given a topical application of the peptide in propylene glycol (50 μl vol) on the dorsal surface of the ear daily for 5 consecutive days.
(§4) The animals are sacrificed on day 6. The ears are removed, with the dorsal and ventral surfaces being separated.
(§5) The tissues of the dorsal surface are immersed in Na EDTA (0.020 M) at 37° C. for 2 h.
(§6) After incubation, the epidermis is removed in the form of an intact sheet, fixed with acetone and rehydrated in PBS (phosphate buffer).
(§7) The Thy 1-2+ and Ia+ EDC (epidermal dendritic cells) are identified by indirect immunofluorescence double labeling.
(§8) In the case of each epidermal sheet, the number of cells per mm^2 is determined using the peripheral regions of the same surface.
The Thy 1.2+ EDC were identified by indirect immunofluorescence double labeling. The epidermal sheets were fixed with acetone and then rehydrated in PBS.
The tissues were labeled simultaneously, at 4° C. for 16 h, with mouse anti-Thy 1.2+ antibody which was diluted 1:100. The tissue samples were washed three times in PBS for 60 min and then incubated, at 37° C. for 60 min, either with goat antimouse antibody which was coupled to rhodamine and diluted 1:20, or with goat antirabbit antibody which was coupled to fluorescein (fluorescine and diluted 1:20 in PBS. The tissues were then washed in PBS before being mounted as previously described.
(§9) In the case of each epidermal sheet, the number of Ia+ Langerhans cells or Thy 1.2+ EDCs per square millimeter was determined by means of immunofluorescence, using a confocal Zeiss microscope which was equipped for this purpose, in four peripheral areas of the same surface. At least four animals were studied in each of the groups. The density of Ia+ Langerhans cells and Thy 1.2+ EDCs is shown for each measurement.

Ia+ Langerhans cells = test: Ia+ Langerhans cell density after topical application to mouse ear; assay type: in vivo, C57-BL/6 mice; details: for Number of Ia+ cells per mm^2 of epidermis, batch 1 / Number of Ia+ cells per mm^2 of epidermis, batch 2 / Number of Ia+ cells per mm^2 of epidermis, batch 3 / Number of Ia+ cells per mm^2 of epidermis, batch 4 / Number of Ia+ cells per mm^2 of epidermis, Mean: C 57 BL/6 mice; for Number of Ia+ cells per mm^2 of epidermis, Mean: 4 batches; for Ia+ cells %: relative to PG controls
Experimental: as §1, §2, §3, §4, §5, §6, §7, §8
The EDC (epidermal dendritic cells) carrying the Ia+ marker were identified using an anti-Ia+ monoclonal antibody.
The epidermal sheets are fixed with acetone and then incubated, at 37° C. for 1 h, in the presence of the anti-Ia+ monoclonal antibody, which has been labeled by the indirect immunoperoxidase method (Kit).
After having been incubated at 37° C. for 10 minutes with a solution of aminoethylcarbazole, the preparation is washed with PBS.
as §9

| Substance | Number of Thy 1.2+ cells per mm^2 of epidermis, batch 1 ([1]; dose 0.10 Nanog.) [cells per mm^2] | Number of Thy 1.2+ cells per mm^2 of epidermis, batch 2 ([1]; dose 0.10 Nanog.) [cells per mm^2] | Number of Thy 1.2+ cells per mm^2 of epidermis, batch 3 ([1]; dose 0.10 Nanog.) [cells per mm^2] | Number of Thy 1.2+ cells per mm^2 of epidermis, batch 4 ([1]; dose 0.10 Nanog.) [cells per mm^2] | Number of Thy 1.2+ cells per mm^2 of epidermis, Mean ([1]; dose 0.10 Nanog.) [cells per mm^2] | Thy 1.2+ cells % T ([1]; dose 0.10 Nanog.) [%] | Number of Thy 1.2+ cells per mm^2 of epidermis, batch 1 ([1]; dose 0.50 Nanog.) [cells per mm^2] | Number of Thy 1.2+ cells per mm^2 of epidermis, batch 2 ([1]; dose 0.50 Nanog.) [cells per mm^2] | Number of Thy 1.2+ cells per mm^2 of epidermis, batch 3 ([1]; dose 0.50 Nanog.) [cells per mm^2] | Number of Thy 1.2+ cells per mm^2 of epidermis, batch 4 ([1]; dose 0.50 Nanog.) [cells per mm^2] | Number of Thy 1.2+ cells per mm^2 of epidermis, Mean ([1]; dose 0.50 Nanog.) [cells per mm^2] | Thy 1.2+ cells % T ([1]; dose 0.50 Nanog.) [%] | Number of Thy 1.2+ cells per mm^2 of epidermis, batch 1 ([1]; dose 1.00 Nanog.) [cells per mm^2] | Number of Thy 1.2+ cells per mm^2 of epidermis, batch 2 ([1]; dose 1.00 Nanog.) [cells per mm^2] | Number of Thy 1.2+ cells per mm^2 of epidermis, batch 3 ([1]; dose 1.00 Nanog.) [cells per mm^2] | Number of Thy 1.2+ cells per mm^2 of epidermis, batch 4 ([1]; dose 1.00 Nanog.) [cells per mm^2] | Number of Thy 1.2+ cells per mm^2 of epidermis, Mean ([1]; dose 1.00 Nanog.) [cells per mm^2] | Thy 1.2+ cells % T ([1]; dose 1.00 Nanog.) [%] | Number of Ia+ cells per mm^2 of epidermis, batch 1 (Ia+ Langerhans cells; dose 0.10 Nanog.) [cells per mm^2] | Number of Ia+ cells per mm^2 of epidermis, batch 2 (Ia+ Langerhans cells; dose 0.10 Nanog.) [cells per mm^2] | other results |
| --- | --- | --- | --- | --- | --- | --- | --- | --- | --- | --- | --- | --- | --- | --- | --- | --- | --- | --- | --- | --- | --- |
| A-Arg-Lys-Asp-Val-Tyr-NH2 (RKDVY; not fully specified (N-terminus, C-terminus)) [ETF-XV, A not specified for the tested sample; b149 names acetic acid-Arg-Lys-Asp-Val-Tyr-NH2] | 160 | 158 | 160 | 170 | 162.00 | 84 | 176 | 168 | 170 | 186 | 175.00 | 98 | 198 | 180 | 188 | 199 | 191.25 | 117 | 315 | 326 | Number of Ia+ cells per mm^2 of epidermis, batch 3 (Ia+ Langerhans cells; dose 0.10 Nanog.): 320 cells per mm^2; Number of Ia+ cells per mm^2 of epidermis, batch 4 (Ia+ Langerhans cells; dose 0.10 Nanog.): 330 cells per mm^2; Number of Ia+ cells per mm^2 of epidermis, Mean (Ia+ Langerhans cells; dose 0.10 Nanog.): 322.75 cells per mm^2; Ia+ cells % (Ia+ Langerhans cells; dose 0.10 Nanog.): 215%; Number of Ia+ cells per mm^2 of epidermis, batch 1 (Ia+ Langerhans cells; dose 0.50 Nanog.): 305 cells per mm^2; Number of Ia+ cells per mm^2 of epidermis, batch 2 (Ia+ Langerhans cells; dose 0.50 Nanog.): 345 cells per mm^2; Number of Ia+ cells per mm^2 of epidermis, batch 3 (Ia+ Langerhans cells; dose 0.50 Nanog.): 330 cells per mm^2; Number of Ia+ cells per mm^2 of epidermis, batch 4 (Ia+ Langerhans cells; dose 0.50 Nanog.): 345 cells per mm^2; Number of Ia+ cells per mm^2 of epidermis, Mean (Ia+ Langerhans cells; dose 0.50 Nanog.): 331.25 cells per mm^2; Ia+ cells % (Ia+ Langerhans cells; dose 0.50 Nanog.): 223%; Number of Ia+ cells per mm^2 of epidermis, batch 1 (Ia+ Langerhans cells; dose 1.00 Nanog.): 348 cells per mm^2; Number of Ia+ cells per mm^2 of epidermis, batch 2 (Ia+ Langerhans cells; dose 1.00 Nanog.): 360 cells per mm^2; Number of Ia+ cells per mm^2 of epidermis, batch 3 (Ia+ Langerhans cells; dose 1.00 Nanog.): 348 cells per mm^2; Number of Ia+ cells per mm^2 of epidermis, batch 4 (Ia+ Langerhans cells; dose 1.00 Nanog.): 350 cells per mm^2; Number of Ia+ cells per mm^2 of epidermis, Mean (Ia+ Langerhans cells; dose 1.00 Nanog.): 351.50 cells per mm^2; Ia+ cells % (Ia+ Langerhans cells; dose 1.00 Nanog.): 243% |
| A-Pyr-Ala-Lys-Ser-Gln-Gly-Gly-Ser-Asn-NH2 (AKSQGGSN; not fully specified (N-terminus, C-terminus); printed as A-Pyr-Ala-Lys-Ser-Gln-Gly-Gly-Ser-Asn-NH2) [ETF-I, A of the tested sample not restated] | 197 | 180 | 192 | 207 | 194.00 | 120 | 200 | 208 | 199 | 219 | 206.50 | 134 | 214 | 210 | 208 | 226 | 214.50 | 143 | 368 | 388 | Number of Ia+ cells per mm^2 of epidermis, batch 3 (Ia+ Langerhans cells; dose 0.10 Nanog.): 378 cells per mm^2; Number of Ia+ cells per mm^2 of epidermis, batch 4 (Ia+ Langerhans cells; dose 0.10 Nanog.): 395 cells per mm^2; Number of Ia+ cells per mm^2 of epidermis, Mean (Ia+ Langerhans cells; dose 0.10 Nanog.): 382.25 cells per mm^2; Ia+ cells % (Ia+ Langerhans cells; dose 0.10 Nanog.): 273%; Number of Ia+ cells per mm^2 of epidermis, batch 1 (Ia+ Langerhans cells; dose 0.50 Nanog.): 360 cells per mm^2; Number of Ia+ cells per mm^2 of epidermis, batch 2 (Ia+ Langerhans cells; dose 0.50 Nanog.): 392 cells per mm^2; Number of Ia+ cells per mm^2 of epidermis, batch 3 (Ia+ Langerhans cells; dose 0.50 Nanog.): 386 cells per mm^2; Number of Ia+ cells per mm^2 of epidermis, batch 4 (Ia+ Langerhans cells; dose 0.50 Nanog.): 399 cells per mm^2; Number of Ia+ cells per mm^2 of epidermis, Mean (Ia+ Langerhans cells; dose 0.50 Nanog.): 384.25 cells per mm^2; Ia+ cells % (Ia+ Langerhans cells; dose 0.50 Nanog.): 275%; Number of Ia+ cells per mm^2 of epidermis, batch 1 (Ia+ Langerhans cells; dose 1.00 Nanog.): 372 cells per mm^2; Number of Ia+ cells per mm^2 of epidermis, batch 2 (Ia+ Langerhans cells; dose 1.00 Nanog.): 410 cells per mm^2; Number of Ia+ cells per mm^2 of epidermis, batch 3 (Ia+ Langerhans cells; dose 1.00 Nanog.): 390 cells per mm^2; Number of Ia+ cells per mm^2 of epidermis, batch 4 (Ia+ Langerhans cells; dose 1.00 Nanog.): 412 cells per mm^2; Number of Ia+ cells per mm^2 of epidermis, Mean (Ia+ Langerhans cells; dose 1.00 Nanog.): 396.00 cells per mm^2; Ia+ cells % (Ia+ Langerhans cells; dose 1.00 Nanog.): 286% |
| Adipoyl-Ala-Lys-Ser-Gln-Gly-Gly-Ser-Asn-NH2 (AKSQGGSN-NH2; not fully specified (N-terminus)) [ETF-III, A of the tested sample not restated] | 168 | 165 | 180 | 176 | 172.25 | 95 | 190 | 190 | 205 | 200 | 196.25 | 122 | 200 | 220 | 216 | 210 | 211.50 | 140 | 376 | 382 | Number of Ia+ cells per mm^2 of epidermis, batch 3 (Ia+ Langerhans cells; dose 0.10 Nanog.): 387 cells per mm^2; Number of Ia+ cells per mm^2 of epidermis, batch 4 (Ia+ Langerhans cells; dose 0.10 Nanog.): 399 cells per mm^2; Number of Ia+ cells per mm^2 of epidermis, Mean (Ia+ Langerhans cells; dose 0.10 Nanog.): 386.00 cells per mm^2; Ia+ cells % (Ia+ Langerhans cells; dose 0.10 Nanog.): 277%; Number of Ia+ cells per mm^2 of epidermis, batch 1 (Ia+ Langerhans cells; dose 0.50 Nanog.): 380 cells per mm^2; Number of Ia+ cells per mm^2 of epidermis, batch 2 (Ia+ Langerhans cells; dose 0.50 Nanog.): 388 cells per mm^2; Number of Ia+ cells per mm^2 of epidermis, batch 3 (Ia+ Langerhans cells; dose 0.50 Nanog.): 299 cells per mm^2; Number of Ia+ cells per mm^2 of epidermis, batch 4 (Ia+ Langerhans cells; dose 0.50 Nanog.): 388 cells per mm^2; Number of Ia+ cells per mm^2 of epidermis, Mean (Ia+ Langerhans cells; dose 0.50 Nanog.): 363.75 cells per mm^2; Ia+ cells % (Ia+ Langerhans cells; dose 0.50 Nanog.): 255%; Number of Ia+ cells per mm^2 of epidermis, batch 1 (Ia+ Langerhans cells; dose 1.00 Nanog.): 305 cells per mm^2; Number of Ia+ cells per mm^2 of epidermis, batch 2 (Ia+ Langerhans cells; dose 1.00 Nanog.): 400 cells per mm^2; Number of Ia+ cells per mm^2 of epidermis, batch 3 (Ia+ Langerhans cells; dose 1.00 Nanog.): 398 cells per mm^2; Number of Ia+ cells per mm^2 of epidermis, batch 4 (Ia+ Langerhans cells; dose 1.00 Nanog.): 410 cells per mm^2; Number of Ia+ cells per mm^2 of epidermis, Mean (Ia+ Langerhans cells; dose 1.00 Nanog.): 378.25 cells per mm^2; Ia+ cells % (Ia+ Langerhans cells; dose 1.00 Nanog.): 269% |
